Assay results from patent US11793824B2, “Administration of nicotinamide mononucleotide in the treatment of disease” (Washington University, priority 2013, dated 2023).
Entries after “also recorded” stand apart in the source; their conditions may differ.

Columns and labels:
Nampt = target: T1, Nampt (Mus musculus, UniProt Q99KQ4); assay: NAD+ levels in neurospheres treated with FK866 with or without NMN; assay type: cell-based
T1 construct: endogenous in cells; host or cells: primary neurospheres (NSPCs) from hippocampi of postnatal mice
T1 sequence (Q99KQ4 whole entry): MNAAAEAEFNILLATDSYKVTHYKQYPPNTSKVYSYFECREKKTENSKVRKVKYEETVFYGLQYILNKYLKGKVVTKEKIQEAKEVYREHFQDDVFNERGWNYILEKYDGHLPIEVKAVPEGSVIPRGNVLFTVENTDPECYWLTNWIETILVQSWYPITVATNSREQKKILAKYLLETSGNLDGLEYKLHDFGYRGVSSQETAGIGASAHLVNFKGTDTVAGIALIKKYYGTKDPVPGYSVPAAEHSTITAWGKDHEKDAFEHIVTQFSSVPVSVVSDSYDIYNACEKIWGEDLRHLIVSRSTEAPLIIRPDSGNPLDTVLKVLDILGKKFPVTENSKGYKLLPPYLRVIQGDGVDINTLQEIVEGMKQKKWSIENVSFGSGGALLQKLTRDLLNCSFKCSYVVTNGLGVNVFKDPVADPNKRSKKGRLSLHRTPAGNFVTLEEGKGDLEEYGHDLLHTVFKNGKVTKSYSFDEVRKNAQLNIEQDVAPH
Procedure: NAD+ levels were determined using an HPLC system (Shimadzu) with a Supelco LC-18-T column (15 cm×4.6 cm; Sigma), as described previously (Yoshino et al, 2011).
FK866 (Hasmann & Schemainda, 2003) (Sigma F8557), EX527 (Peck et al, 2010) (Cayman Chemical 10009798), and AGK2 (Outeiro et al, 2007) (Sigma A8231) were dissolved in DMSO and used to inhibit Nampt, Sirt1, and Sirt2 respectively.
Neurosphere cultures and culture media were prepared as described by Dasgupta & Gutmann, 2005 and Lu & Ramanan, 2012 with the following minor modifications. Briefly, postnatal hippocampi were dissected in HibernateA (Invitrogen, A12475-01) and trypsinized at 37° C. for 7 m. Cells were mechanically dissociated by pipetting and pelleted by centrifugation (1700 rpm, 7 min). Dissociation medium (0.1% sodium bicarbonate, 15 mM HEPES, 0.5% glucose in HBSS) was used to wash the cells before they were resuspended in growth medium. Growth medium consisted of DMEM:F12 (1:1, Invitrogen 11966-025 and 21700-075, respectively), B27 (Invitrogen, 17504-044), N2 (Invitrogen, 17502-048), Pen/Strep (Invitrogen), epidermal growth factor (EGF, 20 ng/ml, Sigma, E4127), fibroblast growth factor (FGF, 10 ng/mL, R&D Systems, 233-fb), and heparin (Sigma). Cultures were maintained at 37° C. with 5% CO2, and passaged twice before use in experiments. […]

661W cone PR cell line = assay: 661W cone PR cell line: cell death and intracellular NAD under FK866 with or without NMN; assay type: cell-based, mouse
Excerpt: The present inventors assessed the physiological importance of NAMPT-mediated NAD biosynthesis in the retina by generating rod cell- and cone cell-specific NAMPT knockout mice. […] Both a and b wave ERG responses were completely depressed as characterized by a total lack of response to all stimuli. […] NMN administration is an effective intervention to treat/prevent retinal degeneration.
The inventors used a 661W cone PR cell line and treated the cells with the specific pharmacological NAMPT inhibitor FK866 (200 nM). […] Cell death progresses dramatically over the next 20 hours.

661W cone cells = assay: 661W cone cells: oxygen consumption rate measurement assay; assay type: cell-based, mouse
Procedure: There was an abundance of degenerative vacuoles with ingested organelles including mitochondria in rod-CKO mice with no such structures identified in littermate wild type controls. At 3 weeks of age, subtle changes in inner segments could be identified in rod-CKO mice although they were not as dramatic as those seen by 4 weeks (FIG. 35). […] The inventors treated 661W cone cells with NAMPT inhibitor FK866 (200 nM). In the oxygen consumption rate measurement assay, multiple aspects of mitochondrial function were analyzed.

[1] = Tear production, modified Schirmer's test; assay type: in vivo, mouse
Procedure: (§1) A 12 month-long NMN administration study using wild-type mice under a regular chow-fed condition was conducted. NMN was administered through drinking water, and two doses of NMN, 100 and 300 mg/kg body weight/day, were tested. […] To assess beneficial and possible adverse effects of NMN, a variety of physiological parameters were periodically monitored, including body weight, body temperature, food and water intake, fed and fasted blood glucose levels, fed and fasted plasma lipid panels, and glucose and insulin tolerance, in NMN-administered and control mice. Blood chemistry, blood cell counts, urine strip test, and other physiological tests including physical activity test were also checked.
In this long-term NMN administration study (See Methods; Administration of NMN through Drinking Water and Determination of NMN Stability and Toxicity), tear production was assessed in control and NMN-administered mice with modified Schirmer's test. All values are presented as mean±SEM. **p<0.01.

NSPCs = assay: NSPC pool in the dentate gyrus after long-term NMN in drinking water; assay type: in vivo, mouse
Procedure: All tissue sections were and cells incubated in blocking/permeabilization solution containing 10% normal goat serum, 1% BSA, and 0.3% Triton-X in PBS for 45 to 60 min prior to 24 or 48 h of incubation with primary antibodies in 5% normal goat serum and 0.1% Triton-X in PBS at 4° C. at the concentrations listed below. […], Alexa488, or Cy3 conjugated-secondary antibodies diluted in 2% normal goat serum, 1% BSA, and 0.1% Triton-X in PBS were added for 2 h at room temperature. Nuclei were stained with 4,6-diamidino-2-phenylindole (Sigma) for 10 min at room temperature.
Cells were harvested by fixation with 4% paraformaldehyde in PBS (15 min). Mice were anesthetized by i.p. injection of ketamine and xylazine, and perfused transcardially through left ventricle with cold 0.1 M phosphate buffer at pH 7.4 followed by a phosphate-buffered solution of 4% paraformaldehyde (PFA). Brains were postfixed with 4% PFA overnight and placed into 15% sucrose followed by 30% sucrose, frozen, and stored at −80° C. until use. Coronal sections (30 μm) were made by cryostat in a 1 in 8 series and stored at −30° C. in cryoprotectant until use. To remove any endogenous peroxidase activity, all sections were incubated with 3% H2O2 for 10 min. […]
For tissue sections, high-magnification (20×, 0.8DICII or 40× oil 1.3DICII) microscopic imaging was performed using a Zeiss Axioimage.Z1. […] Quantification was performed blinded to genotype on 3-8 tissue sections per animal. Cell densities were estimated by the number of immunoreactive cells divided by the area of the structure, measured with ImageJ. […] Quantification was performed blinded to genotype on 2 to 3 fields of view per sample and treatment, from 3 to 9 independent samples.
The inventors hypothesized that systemic administration of NMN may be able to correct age-associated defects in NSPC functionality. […] Quantification of Ki67+ (H) and Dcx+ (I) cells in the DG per unit area of the DG (n=5). […]

[2] = Insulin tolerance test in old mice; assay type: in vivo, mouse; conditions: 100 and 300 mg/kg groups, body weight-matched, 12-month time point, 17 month-old mice
Procedure: as §1
(See Methods; Administration of NMN through Drinking Water and Determination of NMN Stability and Toxicity). As illustrated in FIG. 9A-B, insulin tolerance results from body weight-matched mice in the control and the 100 and 300 mg/kg NMN-administered groups at the 12-month time point are presented. Blood glucose levels (FIG. 9A) and percent glucose changes (FIG. 9B) after insulin injection are shown. The results were analyzed with two-way RANOVA and one-way ANOVA. All values are presented as mean±SEM (n=10-15 for each group).

[3] = NMN in drinking water from 6 to 18 months of age

| NAD+ levels in neurospheres (Nampt; FK866 10 nM, 48 hours) | Structure (SMILES) | intracellular NAD levels (661W cone PR cell line; FK866 200 nM) | cell death of 661W cells (661W cone PR cell line; FK866 200 nM, after 4 hours of treatment) | maximal respiration (661W cone cells; FK866 200 nM) | tear production ([1]; 300 mg/kg group) | tear production ([1]; 18 month-old mice, 100 and 300 mg/kg) | rescue of FK866-induced decrease of NAD+ levels (Nampt; concurrent NMN 100 μM with FK866 10 nM) | NAD levels under FK866 (661W cone PR cell line; NMN 100 μM with FK866) | rescue from FK866-mediated cell death (661W cone PR cell line; NMN 100 μM with FK866) | Type 1 (radial Nestin+) NSPC population with age (NSPCs; 300 mg/kg body weight in drinking water from 6 to 18 months of age) | population of newborn neurons (Dcx+) in the DG (NSPCs; [3]) | population of proliferating cells (Ki67+) in the DG (NSPCs; [3]) | insulin sensitivity (insulin tolerance test) [2] | effects of FK866 on mitochondrial function (661W cone cells; NMN treatment with FK866) |
| --- | --- | --- | --- | --- | --- | --- | --- | --- | --- | --- | --- | --- | --- | --- |
| 4 % of controls | O=C(/C=C/c1cccnc1)NCCCCC1CCN(C(=O)c2ccccc2)CC1 [FK866] | decrease in intracellular NAD levels | significant cell death; also recorded: apoptotic cell death | significantly reduced |  |  |  |  |  |  |  |  |  |  |
|  | NC(=O)c1ccc[n+]([C@@H]2O[C@H](COP(=O)([O-])O)[C@@H](O)[C@H]2O)c1 [NMN, nicotinamide mononucleotide] |  |  |  | comparable to the maximal tear production through the mouse lifespan | increased tear production in a dose-dependent manner | completely rescued | restore NAD to normal levels | completely rescue; also recorded: successfully rescued | improved maintenance; also recorded: able to maintain the NSPC pool | trended to increase | remained similar to controls | significantly enhanced insulin sensitivity | completely reverse |
